# According to patent US20220378923A1, “BET DEGRADER” (KYOWA KIRIN CO., LTD., priority 2019, published 2022):
# Experiments:
# BRD2 = target: T1, BRD2 (Homo sapiens, UniProt P25440); assay: Evaluation of BET proteolysis in SU-DHL-4 cell line by Western blotting: BRD2 (Test Example 4); assay type: cell-based; details: SU-DHL-4 cells, test compound 100 nmol/L, 24 hours
# T1 construct: Changes in the amount of BRD4, BRD2 and BRD3 proteins in the SU-DHL-4 cell line; endogenous in cells; host or cells: SU-DHL-4
# T1 sequence (P25440 whole entry): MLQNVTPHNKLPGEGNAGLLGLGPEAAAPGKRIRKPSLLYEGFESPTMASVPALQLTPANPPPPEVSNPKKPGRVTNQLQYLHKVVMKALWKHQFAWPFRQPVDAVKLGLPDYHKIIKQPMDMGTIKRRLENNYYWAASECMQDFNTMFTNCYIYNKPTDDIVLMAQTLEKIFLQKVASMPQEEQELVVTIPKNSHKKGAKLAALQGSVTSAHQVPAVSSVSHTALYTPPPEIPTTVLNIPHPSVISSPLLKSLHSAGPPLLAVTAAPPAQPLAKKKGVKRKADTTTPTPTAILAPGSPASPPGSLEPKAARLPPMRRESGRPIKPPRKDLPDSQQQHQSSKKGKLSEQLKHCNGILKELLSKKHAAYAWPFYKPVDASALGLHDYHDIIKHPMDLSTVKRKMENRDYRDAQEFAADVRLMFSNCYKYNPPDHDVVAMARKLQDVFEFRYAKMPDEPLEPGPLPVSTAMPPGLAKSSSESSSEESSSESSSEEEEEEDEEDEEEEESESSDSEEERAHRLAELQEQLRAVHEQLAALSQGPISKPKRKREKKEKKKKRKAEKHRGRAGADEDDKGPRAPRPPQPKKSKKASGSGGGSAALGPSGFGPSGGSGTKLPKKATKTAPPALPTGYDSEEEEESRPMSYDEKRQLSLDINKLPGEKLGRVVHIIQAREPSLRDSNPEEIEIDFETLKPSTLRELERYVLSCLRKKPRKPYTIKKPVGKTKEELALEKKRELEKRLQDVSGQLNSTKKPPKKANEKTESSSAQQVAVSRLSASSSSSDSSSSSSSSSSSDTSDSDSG
# Method: (§1) The human DLBCL cell line SU-DHL-4 was purchased from DSMZ. SU-DHL-4 was passaged using RPMI1640 medium containing 10 vol % FBS. The culture conditions were 37° C. and 5% CO2.
# Anti-BRD2 antibody: Brd2 (D8964) Rabbit mAb (Cell Signaling Technology, Cat No. #5848S)
# (§2) Changes in the amount of BRD4, BRD2 and BRD3 proteins in the SU-DHL-4 cell line by the test compound (compound 1b, compound 1l or compound P3) were detected by WB. The compound P3 is a compound described as example 14 in the known Patent Document 2 (WO 2015/081284), which was synthesized according to the method described in Patent Document 2 and used in this test.
# (§3) The cultured SU-DHL-4 cells were seeded at 6×10^5 cells/well in a transparent 6-well plate (Code No. 140675, Thermo Fisher Scientific). After seeding, the cells were pre-cultured at 37° C. in a carbon dioxide gas incubator for 18 to 25 hours. Next, a 0.1 mmol/L DMSO solution of the test compound was prepared, diluted so that the concentration was 200-fold of the final concentration in RPMI1640 medium containing the above FBS and PS, and 1/200 volume of the diluted solution was added to each well. At this time, the final concentration of DMSO was adjusted to be 0.1 vol %. After adding the test compound, the cells were cultured at 37° C. in a carbon dioxide gas incubator for 24 hours.
# (§4) After collecting the cells, the supernatant was aspirated, and Lysis buffer 6 (R&D systems, Cat No. 895561) was added to the pellet at 0.1 mL/sample. After incubating on ice for 60 minutes, the supernatant was collected by centrifugation at 15000 rpm for 10 minutes at 4° C.
# (§5) Using Pierce BCA Protein Assay Kit (Thermo Fisher, Cat No. 23225), the protein concentration of each sample was quantified according to the manual attached to the kit, and then was diluted and prepared with Lane Marker Reducing Sample Buffer (5×) (Thermo Fisher, Cat No. 39000) and Lysis buffer 6 to 1 mg/mL. The cells were incubated at 95° C. for 5 minutes to prepare WB samples. WB samples were stored at −30° C. until electrophoresis.
# (§6) The WB sample was thawed and used after vortex mixing and spin down. […]
# BRD3 = target: T2, BRD3 (Homo sapiens, UniProt Q15059); assay: Evaluation of BET proteolysis in SU-DHL-4 cell line by Western blotting: BRD3 (Test Example 4); assay type: cell-based; details: SU-DHL-4 cells, test compound 100 nmol/L, 24 hours
# T2 construct: Changes in the amount of BRD4, BRD2 and BRD3 proteins in the SU-DHL-4 cell line; endogenous in cells; host or cells: SU-DHL-4
# T2 sequence (Q15059 whole entry): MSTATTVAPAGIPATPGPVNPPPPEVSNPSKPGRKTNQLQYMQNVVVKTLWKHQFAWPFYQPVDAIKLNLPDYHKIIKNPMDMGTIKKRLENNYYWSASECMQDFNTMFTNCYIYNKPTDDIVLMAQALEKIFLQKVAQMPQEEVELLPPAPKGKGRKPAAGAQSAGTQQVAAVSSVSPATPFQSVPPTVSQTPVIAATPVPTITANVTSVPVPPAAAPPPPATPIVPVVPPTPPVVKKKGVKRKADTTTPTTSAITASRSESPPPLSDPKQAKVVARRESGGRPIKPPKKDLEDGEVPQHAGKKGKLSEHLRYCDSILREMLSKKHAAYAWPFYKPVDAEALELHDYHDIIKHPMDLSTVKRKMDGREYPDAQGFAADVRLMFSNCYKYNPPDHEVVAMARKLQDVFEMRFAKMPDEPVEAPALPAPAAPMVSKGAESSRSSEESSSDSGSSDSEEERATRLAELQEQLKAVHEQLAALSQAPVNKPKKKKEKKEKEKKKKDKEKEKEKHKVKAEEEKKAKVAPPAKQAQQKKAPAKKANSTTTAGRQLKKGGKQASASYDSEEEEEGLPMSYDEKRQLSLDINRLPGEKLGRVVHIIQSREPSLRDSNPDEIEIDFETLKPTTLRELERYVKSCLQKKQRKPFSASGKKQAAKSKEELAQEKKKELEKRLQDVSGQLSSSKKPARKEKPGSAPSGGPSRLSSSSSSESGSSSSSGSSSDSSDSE
# Method: as §1
# Anti-BRD3 antibody: Anti-BRD3 antibody (2088C3a) (Santa Cruz Biotechnology, Cat No. sc-81202)
# as §2, §3, §4, §5, §6
# BRD4 = target: T3, BRD4 (Homo sapiens, UniProt O60885); assay: Evaluation of BET proteolysis in SU-DHL-4 cell line by Western blotting: BRD4 (Test Example 4); assay type: cell-based; details: SU-DHL-4 cells, test compound 100 nmol/L, 24 hours
# T3 construct: Changes in the amount of BRD4, BRD2 and BRD3 proteins in the SU-DHL-4 cell line; endogenous in cells; host or cells: SU-DHL-4
# Method: as §1
# Anti-BRD4 antibody: BRD4 (E2A7X) Rabbit mAb (Cell Signaling Technology, Cat No. #13440S)
# as §2, §3, §4, §5, §6
# [1] = system: MYC mRNA expression in SU-DHL-4 cells; assay: Suppressive effect on MYC mRNA expression (Test Example 2); assay type: cell-based, human; details: Homo sapiens, test compound 100 nmol/L, 6 hours, qRT-PCR corrected by ACTB, GAPDH, HPRT1, read-out: Suppression Rate of MYC mRNA Expression (%)
# Method: The cells were passaged twice a week at a volume of 20-40 mL so as to maintain a cell concentration of 1×10^6 cells/mL or less. The cultured SU-DHL-4 cells were seeded at 6×10^5 cells/well in a transparent 6-well plate (Code No. 140675, Thermo Fisher Scientific). After seeding, the cells were precultured at 37° C. in a carbon dioxide gas incubator for 18 to 25 hours. […] At this time, the final concentration of DMSO was adjusted to be 0.1 vol %. After adding the test compound, the cells were cultured at 37° C. in a carbon dioxide gas incubator for 6 hours. Then, the cells were collected by centrifugation and used for extraction of mRNA. mRNA extraction from cells was performed using Maxwell® 16 LEV simplyRNA Purification Kits (Code No. AS1270, Promega). The mRNA recovery protocol was performed according to the manufacturer's recommended protocol attached to the kit. […] The cDNA conversion was performed, according to the manufacturer's recommended protocol attached to the kit, in 0.020 mL of the reaction solution, and GeneAmp® PCR System 9700 (Applied Biosystems) was used. The cDNA-converted sample was diluted 10-fold by adding 0.180 mL of RNase Free Water (Code No. 10977-023, Thermo Fisher Scientific) and used for quantitative real-time polymerase chain reaction (qRT-PCR). For the calibration curve of qRT-PCR, 0.08 mL of RNase Free Water was added to a cDNA sample using DMSO as a test compound for 5-fold dilution. Further, two 5-fold dilutions were prepared stepwise, and these three samples were used as the calibration curve samples. The following reagents were used for qRT-PCR: TaqMan Gene Expression Assays, Inventoried (Primer probe: Code No. 4331182, Thermo Fisher Scientific, Assay ID: (i) MYC: Hs00153408_m1, (ii) ACTB: Hs01060665_g1, (iii) GAPDH: Hs04420697_g1, (iv) HPRT1: […] Universal PCR Master Mix, no AmpEraseR UNG (Master Mix: Code No. 4367846, Thermo Fisher Scientific). Primer probe (0.001 mL), Master Mix (0.010 mL), water (0.004 mL) and the diluted cDNA sample (0.005 mL) were mixed, and qRT-PCR analysis was performed. For qRT-PCR analysis, QuantStudio 7 Flex (Thermo Fisher Scientific) or 7500 Fast Real-Time PCR (Applied Biosystems) was used to measure in Fast mode and analyze. […] Corrected MYC expression=A/B • A: MYC expression level • B: Geometric mean of expression levels of ACTB, GAPDH and HPRT1 Using the corrected values, the suppression rate of MYC expression for the wells to which the test compound was not added was calculated by the following formula. […] Corrected MYC expression level in a well containing test compound • D: Corrected MYC expression level in a well to which test compound was not added
# DCAF16 KO SU-DHL-4 cells = assay: Inhibitory effect on cell viability using SU-DHL-4 DCAF16 knock out (KO) cell line (Test Example 6); assay type: cell-based, human
# Method: The human DLBCL cell line SU-DHL-4 was purchased from DSMZ. SU-DHL-4 was passaged using RPMI1640 medium containing 10 vol % FBS. After the Cas9 gene was introduced, the cells were cultured in the above medium containing 0.01 mg/mL blasticidin (InvivoGen, Cat No. ant-bl-1). After introduction of sgRNA, the cells were cultured in the above medium containing 0.0001 mg/mL puromycin dihydrochloride (SIGMA, Cat No. P9020-10 ML). The culture conditions were 37° C. and 5% CO2.
# Edit-R Lentiviral hEF1α-Blast-Cas9 Nuclease Particles (Cat No. VCAS10126) was used as a lentivirus for expressing Cas9 in human cell lines. Three types of Edit-R Human DCAF16 Lentiviral sgRNA (Cat No. VSGH10142-246568260; DNA target sequence […] (SEQ ID NO: 1), Cat No. VSGH10142-246568262; DNA target sequence […] (SEQ ID NO: 2) and Cat No. VSGH10142-246568263; DNA target sequence […] (SEQ ID NO: 3)) were used as lentiviruses for introducing DCAF16 sgRNA. As a control, Edit-R Lentiviral sgRNA Non-targeting Control #1 (Cat No. VSGC10215) was used. All lentiviruses were purchased from Dharmacon and stored at −80° C. until use.
# SU-DHL-4 was suspended at 4×10^5 cells/mL in RPMI 1640 without FBS, 0.25 mL of the suspension was added to a 24-well plate, and the cells were cultured overnight. The next day, 0.003 mL of virus particles of Edit-R Lentiviral hEF1α-Blast-Cas9 Nuclease Particles was added. After culturing in a CO2 incubator for 4 hours, RPMI 1640 containing 0.75 mL of 10 vol % FBS was added. After culturing in a CO2 incubator for about 48 hours, the medium was replaced with RPMI1640 containing 10 vol % FBS, and the cells were cultured in a CO2 incubator. Four days after infection, the medium was replaced with a medium containing 0.01 mg/mL blasticidin (InvivoGen, Cat No. ant-bl-1). Then, the cells were passaged once every 2 to 3 days and thus twice in total (that is, cultured for 1 week) to obtain SU-DHL-4/Cas9, which is a Cas9-introduced SU-DHL-4 cell line.
# (6) sgRNA infection SU-DHL-4/Cas9 was suspended at 4×10^5 cells/mL in RPMI 1640 without FBS, 0.25 mL of the suspension was added to a 24-well plate, and the cells were cultured overnight. The next day, a total of 4 types of sgRNA virus particles, 1 type of Control and 3 types targeting DCAF16 were added to the respective wells by 0.03 mL. After culturing in a CO2 incubator for 5 hours, RPMI 1640 containing 0.75 mL of 10 vol % FBS was added.
# After culturing in a CO2 incubator for about 48 hours, the medium was replaced with RPMI1640 containing 10 vol % FBS, and the cells were cultured in a CO2 incubator. Four days after infection, the medium was replaced with a medium supplemented with 0.01 mg/mL puromycin dihydrochloride (SIGMA, Cat No. P9020-10 ML). Then, the cells were passaged once or twice a week for 2 weeks, and a cell stock was prepared using CELLBANKER I plus (Takara Bio, Cat No. CB-021). Cell line stock was stored at −80° C. Using Edit-R Lentiviral sgRNA Non-targeting Control #1, the Negative Control sequence was introduced into the SU-DHL-4 cell line, which was referred to as SU-DHL-4 NC strain, and using Edit-R Human DCAF16 Lentiviral sgRNA, […] sequence (SEQ ID NO: 1) was introduced into the SU-DHL-4 cell line, which was referred to as SU-DHL-4 DCAF16 KO1 strain, […] sequence (SEQ ID NO: 2) was introduced into the SU-DHL-4 cell line, which was referred to as SU-DHL-4 DCAF16 KO2 strain, and […] sequence (SEQ ID NO: 3) was introduced into the SU-DHL-4 cell line, which was referred to as SU-DHL-4 DCAF16 KO 3 strain.
# The cultured DCAF16 KO SU-DHL-4 cells were seeded at 2000 cells/well in a transparent 384-well plate (Code No. 781182, Greiner bio-one). After seeding, the cells were pre-cultured at 37° C. in a carbon dioxide gas incubator for 18 to 25 hours. […]
Structure (SMILES),"change in amount of BRD2 protein (band in Western blotting, FIG. 1) (BRD2)","change in amount of BRD3 protein (band in Western blotting, FIG. 1) (BRD3)","change in amount of BRD4 protein (band in Western blotting, FIG. 1) (BRD4)",inhibition at 0.1 µM [1] [%],Activity Attenuation Ratio (DCAF16 KO SU-DHL-4 cells; (SU-DHL-4 DCAF16 KO IC50)/(SU-DHL-4 WT IC50)),"IC50 (DCAF16 KO SU-DHL-4 cells; Homo sapiens, DCAF16 KO SU-DHL-4 cells, 72 hours, Cell Counting Kit-8, 50% inhibition of cell viability) [µM]"
"CCNC(=O)C[C@@H]1N=C(c2ccc(SCCCCSc3ccc(C4=N[C@@H](CC(=O)NCC)c5nnc(C)n5-c5ccc(OC)cc54)cc3)cc2)c2cc(OC)ccc2-n2c(C)nnc21 [Compound P3, 2,2′-((4S,4'S)-6,6′-((butane-1,4-diylbis(sulfanediyl))bis(4,1-phenylene))bis(8-methoxy-1-methyl-4H-benzo[f][1,2,4]triazolo[4,3-a][1,4]diazepine-6,4-diyl))bis(N-ethylacetamide), reference compound]",the band was not faint compared with that of control,the band was not faint compared with that of control,the band was not faint compared with that of control,–,–,–
"CCC(=O)N1c2ccccc2[C@H](Nc2ccc(NC(=O)CCCC(=O)Nc3ccc(N[C@@H]4C[C@H](C)N(C(=O)CC)c5ccccc54)cc3)cc2)C[C@@H]1C (relative stereo) [Compound 4a, N^1,N^5-bis(4-{[(2S*,4R*)-2-Methyl-1-propionyl-1,2,3,4-tetrahydroquinolin-4-yl]amino}phenyl)glutaramide]",–,–,–,98.4,361,0.0758
